{"source": "patent US20170143787A1", "about": "“CHEMOKINE RECEPTOR ANTAGONIST AND ITS COMBINATIONAL THERAPY” (Pertinax Therapeutics Inc., priority 2014, published 2017)", "key": {"[1]": {"system": "rat HCC cell line, CRL-1601", "settings": "12.5 or 25 mg/kg/day s.c. for 4 weeks", "from_the_text": "The CXCR4 antagonists used was the short peptide dimer antagonist CTCE-9908 (SEQ ID NO.1). A rat orthotopic hepatocellular carcinoma (HCC) model was established by injection of a rat HCC cell line, CRL-1601, into the left lobe of the liver of Buffalo rats. Since the rat HCC cell line was generated from Buffalo rats, in vivo formed tumor in the Buffalo rats can mimic the clinical setting. […]\nThe first group (control) received sham operation followed by water for irrigation. […] The dimension of the primary tumour was measured along with liver function. The microvessel density, proliferation index of tumor cells, apoptotic state and morphology of tumour cells in primary tumour and metastases were analysed by immunohistochemistry. […] The number of metastatic tumour loci was analysed. Plasma SDF-1 was analyzed by ELISA. […]\nThis study examined a rat model of hepatocellular carcinoma (HCC) that mimics transarterial chemoembolization in the clinical setting. […] One week after the last CTCE-9908 treatment, the rats were sacrificed and assessments of the tumor as well as the circulating cells were made by luminescence and flow cytometry, respectively."}, "[2]": {"system": "refractory neoplasms (various solid tumors)", "assay": "open label, dose-finding trial (Accelerated Titration Design) in subjects with refractory neoplasms", "type": "in vivo, human", "description": "According to the study design, the cohort was to be expanded in the case of moderate toxicity to include more subjects and additional dose increments (40%) until the maximum dose of 5 mg/kg or dose limiting toxicity was achieved.\nSubjects were dosed daily for 4 consecutive weeks (not including weekends and holidays) and dose limiting toxicity was assessed after subjects have completed their treatment.\nToxicity reported during the study was graded according to the National Cancer Institute (NCI) CTCAE (Common Terminology Criteria for Adverse Events) v3.0. A Dose Limiting Toxicity (DLT) was defined as follows: • a) Any grade ≧3 reversible non-haematologic treatment-related toxicity OR • b) Any irreversible grade ≧2 non-haematologic treatment-related toxicity OR • c) Any grade ≧4 haematologic treatment-related toxicity lasting longer than 10 days during the 4 weeks of treatment\nFor the purpose of this study, Moderate Toxicity has been defined according to NCI CTCAE v3.0. Adverse events were treated when they occurred. No investigational or commercial agents or therapies were administered with the intent to treat the subject's malignancy during the period that the subjects were in the study."}}, "data": [{"substance": "KGVSLSYR-X-RYSLSVGK [CTCE-9908]", "values": [{"measurement": "tumor regression", "setting": "[1]; CTCE-9908 in combination with hepatic artery ligation (HAL), luminescence and necropsy", "value": "up to 80%"}, {"measurement": "tolerability", "setting": "[1]; rats", "value": "well tolerated by all rats"}, {"measurement": "number of Moderate Toxicities observed during the study", "setting": "[2]; NCI CTCAE v3.0, whole study", "value": "eight"}, {"measurement": "overall stable disease, number of subjects", "setting": "[2]; at the end of their last treatment cycle, 1, 2.5 and 5 mg/kg/day doses", "value": "five"}, {"measurement": "Dose Limiting Toxicity (DLT)", "setting": "[2]; daily dosing for 4 consecutive weeks, up to 5 mg/kg, NCI CTCAE v3.0", "value": "no DLT was reported"}, {"measurement": "tumor markers", "setting": "[2]; one ovarian cancer subject and one colorectal cancer subject", "value": "reduction in tumor markers"}, {"measurement": "duration of stable disease", "setting": "[2]; one small bowel subject", "value": "up to seven"}, {"measurement": "Maximum Tolerated Dose (MTD)", "setting": "[2]; subjects with refractory neoplasms, up to 5 mg/kg", "value": "not established"}]}]}
